Measurements taken from paper PMC8752738, “A propolis-derived small molecule ameliorates metabolic syndrome in obese mice by targeting the CREB/CRTC2 transcriptional complex” (Nature Communications, 2022).
Values joined by “and” are separate entries in the source; they are usually repeats but may differ in a detail not shown here. Equal entries are not always repeated. Where two headings read alike, the source gives them in different places.

Assays:
HIS-CRTC2-S171A proteins = target: T1, HIS-CRTC2-S171A proteins (Homo sapiens, UniProt Q53ET0, S171A); experiment: Surface plasmon resonance, immobilized HIS-CRTC2-S171A; format: binding
T1 construct: made in house; host or cells: E. coli

[1] = system: CREB phosphorylation, CRTC2 dephosphorylation; experiment: Immunoblotting/immunostaining of P-CREB and CRTC2 in primary hepatocytes; format: cell-based, mouse; conditions: for Relative P-CREB/CREB density: Supp. Fig.10 c, individual replicates
Method: Immunoblotting and immunoprecipitation assays were performed as previously described, with antibodies recognizing CREB, Ser133-P-CREB, AMPK, P-AMPK, AKT, P-AKT (Cell Signaling), PGC-1α (Merck), CRTC2 (Calbiochem), PCK1 (Santa Cruz), SREBP1 (Santa Cruz), SREBP2 (BD), HA (Convance), LXRα (Santa Cruz), FLAG (Sigma), GST (Covance), HIS (Abmart), GAPDH (AOGMA), α-TUBULIN (Abmart), β-ACTIN (Abmart), and other antibodies (Supplementary Table 3). For immunostaining assays, primary cultured hepatocytes seeded on coverslips were fixed with 4% paraformaldehyde for 20 min, permeabilized with 0.3% Triton X-100 in PBS, and then blocked by 5% normal goat serum and 0.3% Triton X-100 in PBS, followed by incubation with anti-CREB (1:1000), anti-P-CREB (1:1000), or anti-HA (1:3000) antibodies for 1 h at 4 °C. Slides were then washed, and after washing, slides were incubated with fluorochrome-conjugated secondary antibodies (Invitrogen). Slides were then washed and mounted with Vectashield mounting media containing 4, 6-diamidino-2-phenylindole (DAPI).

[2] = Tissue distribution assay; format: in vivo, mouse; conditions: for concentration at 8 h / concentration at 4 h / concentration at 2 h: male, C57/BL6, mouse, po, 20 mg/kg
Method: Male C57/BL6 mice (18–20 g, n = 3 in each group) were randomly sorted into treatment groups. Being fasted for 12-h, mice were treated with oral gavage of the compound APC (20 mg/kg, in DMSO/0.5% HMPC, 5/95, v/v). After 2, 4, and 8-h of administration, the animals were sacrificed, respectively, the indicated tissues, including plasma, liver, kidney, muscle, brain, spleen, pancreas, white and brown fat, were collected and preserved at −80 °C. The APC content in samples was analyzed with a liquid chromatography-mass spectrometry/mass spectrometry (LC–MS/MS) system and normalized by protein content.

T1 sequence (Q53ET0 whole entry S171A): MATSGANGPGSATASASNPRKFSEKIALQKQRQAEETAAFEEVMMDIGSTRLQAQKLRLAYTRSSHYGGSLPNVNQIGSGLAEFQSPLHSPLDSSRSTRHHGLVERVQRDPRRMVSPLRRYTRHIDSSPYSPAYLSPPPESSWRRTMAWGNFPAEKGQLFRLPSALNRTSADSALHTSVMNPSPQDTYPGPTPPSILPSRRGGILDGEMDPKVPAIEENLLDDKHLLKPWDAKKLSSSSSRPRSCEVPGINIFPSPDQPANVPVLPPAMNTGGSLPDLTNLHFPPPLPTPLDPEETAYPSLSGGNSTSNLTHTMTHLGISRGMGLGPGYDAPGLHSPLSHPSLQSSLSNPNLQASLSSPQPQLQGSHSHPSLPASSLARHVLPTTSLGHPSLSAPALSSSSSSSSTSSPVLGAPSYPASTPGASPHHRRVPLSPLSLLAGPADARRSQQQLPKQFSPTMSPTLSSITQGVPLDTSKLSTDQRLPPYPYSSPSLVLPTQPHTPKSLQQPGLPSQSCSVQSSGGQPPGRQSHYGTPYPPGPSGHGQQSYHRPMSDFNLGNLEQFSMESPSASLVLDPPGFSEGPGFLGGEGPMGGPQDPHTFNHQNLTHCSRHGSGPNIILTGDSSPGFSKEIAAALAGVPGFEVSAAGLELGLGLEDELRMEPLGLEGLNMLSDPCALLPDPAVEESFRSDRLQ

CC(C)=CCc1cc(C=CC(=O)O)cc(CC=C(C)C)c1O [APC, 3,5-diprenyl-4-hydroxycinnamic acid]
affinity to CRTC2 (SPR) (HIS-CRTC2-S171A proteins): no affinity | Relative P-CREB/CREB density ([1]; CT (no glucagon), CTRL about 1.0): 1.21 and 1.302 and 1.2292 | Relative P-CREB/CREB density ([1]; GLUC (glucagon), CTRL about 2.91): 3.03 and 2.994 and 2.993 | CREB phosphorylation induced by glucagon ([1]; primary hepatocytes): very little effect | CRTC2 dephosphorylation or nuclear translocation ([1]; primary hepatocytes, APC 10 μM, glucagon): very little effect | content of APC in the liver compared with other tissues ([2]; 2–8 h after one oral dose 20 mg/kg): highest | APC content in tissue ([2]; Brain, 2H, oral, individual mice, * below the detection line, 2 h after oral dose): 0* ng/g (2×) and 16.430 ng/g | APC content in tissue ([2]; Brain, 4H, oral, individual mice, * below the detection line): 0* ng/g | APC content in tissue ([2]; Brain, 4H, oral, individual mice, * below the detection line, 4 h after oral dose): 1.550 ng/g and 4.810 ng/g | APC content in tissue ([2]; Brain, 8H, oral, individual mice, * below the detection line): 0* ng/g | APC content in tissue ([2]; BrownFat, 2H, oral, individual mice, 2 h after oral dose): 9.800 ng/g and 11.690 ng/g | APC content in tissue ([2]; BrownFat, 4H, oral, individual mice): 9.800 ng/g | APC content in tissue ([2]; BrownFat, 4H, oral, individual mice, 4 h after oral dose): 14.240 ng/g and 144.870 ng/g | APC content in tissue ([2]; BrownFat, 8H, oral, individual mice): 1.740 ng/g and 5.480 ng/g and 3.880 ng/g | APC content in tissue ([2]; Kidney, 2H, oral, individual mice, 2 h after oral dose): 23.340 ng/g and 9.890 ng/g and 11.250 ng/g | APC content in tissue ([2]; Kidney, 4H, oral, individual mice): 9.550 ng/g | APC content in tissue ([2]; Kidney, 4H, oral, individual mice, 4 h after oral dose): 19.740 ng/g and 19.810 ng/g | APC content in tissue ([2]; Kidney, 8H, oral, individual mice): 2.260 ng/g and 4.200 ng/g and 7.700 ng/g | APC content in tissue ([2]; Live (liver), 2H, oral, individual mice, 2 h after oral dose): 703.950 ng/g and 577.440 ng/g | APC content in tissue ([2]; Live (liver), 4H, oral, individual mice): 815.560 ng/g | APC content in tissue ([2]; Live (liver), 4H, oral, individual mice, 4 h after oral dose): 1205.720 ng/g | APC content in tissue ([2]; Live (liver), 8H, oral, individual mice): 287.680 ng/g and 320.280 ng/g | APC content in tissue ([2]; Muscle, 2H, oral, individual mice, 2 h after oral dose): 2.680 ng/g and 4.690 ng/g | APC content in tissue ([2]; Muscle, 4H, oral, individual mice): 13.390 ng/g | APC content in tissue ([2]; Muscle, 4H, oral, individual mice, 4 h after oral dose): 7.190 ng/g | APC content in tissue ([2]; Muscle, 8H, oral, individual mice): 0.000 ng/g and 1.740 ng/g and 1.650 ng/g | APC content in tissue ([2]; Pancreas, 2H, oral, individual mice, 2 h after oral dose): 18.050 ng/g and 11.070 ng/g and 26.740 ng/g | APC content in tissue ([2]; Pancreas, 4H, oral, individual mice): 33.580 ng/g | APC content in tissue ([2]; Pancreas, 4H, oral, individual mice, 4 h after oral dose): 20.040 ng/g and 8.730 ng/g | APC content in tissue ([2]; Pancreas, 8H, oral, individual mice, * below the detection line): 10.890 ng/g and 0* ng/g (2×) | APC content in tissue ([2]; Spleen, 2H, oral, individual mice, 2 h after oral dose): 10.360 ng/g and 16.550 ng/g | APC content in tissue ([2]; Spleen, 4H, oral, individual mice): 12.280 ng/g | APC content in tissue ([2]; Spleen, 4H, oral, individual mice, 4 h after oral dose): 22.450 ng/g | APC content in tissue ([2]; Spleen, 8H, oral, individual mice): 0.000 ng/g and 12.270 ng/g and 10.910 ng/g | APC content in tissue ([2]; WhiteFat, 2H, oral, individual mice, 2 h after oral dose): 10.520 ng/g and 12.290 ng/g | APC content in tissue ([2]; WhiteFat, 4H, oral, individual mice): 42.520 ng/g | APC content in tissue ([2]; WhiteFat, 4H, oral, individual mice, 4 h after oral dose): 32.220 ng/g | APC content in tissue ([2]; WhiteFat, 8H, oral, individual mice): 3.140 ng/g and 8.490 ng/g and 14.550 ng/g | APC-PO-heart-plasma ([2]; heart plasma, PO, 2H, individual mice): 28.92 ng/mL and 27.48 ng/mL | APC-PO-heart-plasma ([2]; heart plasma, PO, 4H, individual mice): 64.03 ng/mL and 39.57 ng/mL | APC-PO-heart-plasma ([2]; heart plasma, PO, 8H, individual mice): 7.56 ng/mL and 19.01 ng/mL and 14.9 ng/mL | concentration at 8 h ([2]; brain, Brain, 8H, oral, individual mice, * below the detection line, read-out: APC content in tissue): 0 ng/g | concentration at 4 h ([2]; brain, brain, 4 h after oral, Figure 5l, Y, read-out: average APC content 4 h after oral): 3.18 ng/g | concentration at 4 h ([2]; brain, brain, 4 h after oral, Figure 5l, size of bubble, read-out: average APC content 4 h after oral): 3.18 ng/g | concentration at 4 h ([2]; brown fat (BF), BF, 4 h after oral, Figure 5l, size of bubble, read-out: average APC content 4 h after oral): 56.3 ng/g | concentration at 4 h ([2]; brown fat, BF, 4 h after oral, Figure 5l, Y, read-out: average APC content 4 h after oral): 56.3 ng/g | concentration at 2 h ([2]; brown fat, BrownFat, 2H, oral, individual mice, read-out: APC content in tissue): 11.1 ng/g | concentration at 2 h ([2]; heart plasma, heart plasma, PO, 2H, individual mice, read-out: APC-PO-heart-plasma): 32.1 ng/mL | concentration at 4 h ([2]; heart plasma, heart plasma, PO, 4H, average, read-out: avarage APC, APC-PO-heart-plasma): 48.5 ng/mL | concentration at 4 h ([2]; heart plasma, heart plasma, PO, 4H, individual mice, read-out: APC-PO-heart-plasma): 41.8 ng/mL | concentration at 4 h ([2]; kidney, kidney, 4 h after oral, Figure 5l, Y, read-out: average APC content 4 h after oral): 16.4 ng/g | concentration at 4 h ([2]; kidney, kidney, 4 h after oral, Figure 5l, size of bubble, read-out: average APC content 4 h after oral): 16.4 ng/g | concentration at 4 h ([2]; liver, LIVER, 4 h after oral, Figure 5l, Y, read-out: average APC content 4 h after oral): 917 ng/g | concentration at 4 h ([2]; liver, LIVER, 4 h after oral, Figure 5l, size of bubble, read-out: average APC content 4 h after oral): 917 ng/g | concentration at 2 h ([2]; liver, Live (liver), 2H, oral, individual mice, read-out: APC content in tissue): 756 ng/g | concentration at 4 h ([2]; liver, Live (liver), 4H, oral, individual mice, read-out: APC content in tissue): 729 ng/g | concentration at 8 h ([2]; liver, Live (liver), 8H, oral, individual mice, read-out: APC content in tissue): 178 ng/g | concentration at 2 h ([2]; liver, avarage APC, Live (liver), 2H, oral, average, heading: avarage APC): 679 ng/g | concentration at 4 h ([2]; liver, avarage APC, Live (liver), 4H, oral, average, heading: avarage APC): 917 ng/g | concentration at 2 h ([2]; muscle, Muscle, 2H, oral, individual mice, read-out: APC content in tissue): 3.77 ng/g | concentration at 4 h ([2]; muscle, Muscle, 4H, oral, individual mice, read-out: APC content in tissue): 6.73 ng/g | concentration at 4 h ([2]; muscle, Muscle, 4 h after oral, Figure 5l, Y, read-out: average APC content 4 h after oral): 9.1 ng/g | concentration at 4 h ([2]; muscle, Muscle, 4 h after oral, Figure 5l, size of bubble, read-out: average APC content 4 h after oral): 9.1 ng/g | concentration at 4 h ([2]; pancreas, panc, 4 h after oral, Figure 5l, Y, read-out: average APC content 4 h after oral): 20.8 ng/g | concentration at 4 h ([2]; pancreas, panc, 4 h after oral, Figure 5l, size of bubble, read-out: average APC content 4 h after oral): 21.2 ng/g | concentration at 4 h ([2]; portal vein plasma, po-portal vein plasma, 4 h after oral, Figure 5l, Y, read-out: average APC content 4 h after oral): 48.5 ng/g | concentration at 4 h ([2]; portal vein plasma, po-portal vein plasma, 4 h after oral, Figure 5l, size of bubble, read-out: average APC content 4 h after oral): 48.5 ng/g | concentration at 2 h ([2]; spleen, Spleen, 2H, oral, individual mice, read-out: APC content in tissue): 15.6 ng/g | concentration at 4 h ([2]; spleen, Spleen, 4H, oral, individual mice, read-out: APC content in tissue): 13.8 ng/g | concentration at 4 h ([2]; spleen, spleen, 4 h after oral, Figure 5l, Y, read-out: average APC content 4 h after oral): 16.2 ng/g | concentration at 4 h ([2]; spleen, spleen, 4 h after oral, Figure 5l, size of bubble, read-out: average APC content 4 h after oral): 16.2 ng/g | concentration at 4 h ([2]; white fat, WF, 4 h after oral, Figure 5l, Y, read-out: average APC content 4 h after oral): 32.7 ng/g | concentration at 4 h ([2]; white fat, WF, 4 h after oral, Figure 5l, size of bubble, read-out: average APC content 4 h after oral): 32.7 ng/g | concentration at 2 h ([2]; white fat, WhiteFat, 2H, oral, individual mice, read-out: APC content in tissue): 18.5 ng/g | concentration at 4 h ([2]; white fat, WhiteFat, 4H, oral, individual mice, read-out: APC content in tissue): 23.2 ng/g
